Measurements taken from patent US12691109B2, “Bifunctional aggregation-induced emission luminogen for monitoring and killing of multidrug-resistant bacteria” (The Hong Kong University of Science and Technology, priority 2018, dated 2026).
Entries after “also recorded” stand apart in the source; their conditions may differ.

Legend:
[1] = test system: MDR S. epidermidis-infected wounds; assay: Bacteria-infected full-thickness skin wound model on rats; assay type: in vivo, Wistar rats
From the text: (§1) FIGS. 26A-D show In vivo evaluation of TriPE-NT in treatment of bacteria-infected wounds on rats. FIG. 26A illustrates the process of establishing bacteria-infected full-thickness skin wound models on rats. […] FIG. 26C is a graph plotting the proportion of the E. coli and MDR E. coli infected wound area on day 3 and day 7 after the injury. FIG. 26D is a graph plotting the proportion of the S. epidermidis and MDR S. epidermidis infected wound area on day 3 and day 7 after the injury (each experiment was repeated at least 5 times).
(§2) To further evaluate the anti-bacterial activity of TriPE-NT in vivo, the performance of TriPE-NT on bacteria-infected wounds of rats was tested. E. coli-, MDR E. coli-, S. epidermidis or MDR S. epidermidis-infected, full-thickness skin wounds were established on the dorsal skin of the Wistar rats (FIG. 26A). The macroscopic appearance of the healing processes of the wounds was captured at different time points (FIG. 26B).
(§3) Hematoxylin and eosin (HE) staining was carried out for evaluating the wound healing of the sectioned tissues of the E. coli-, MDR E. coli-, S. epidermidis- and MDR S. epidermidis-infected wounds on the Wistar rats on day 3 and day 7 post-injury (FIG. 28). […] Fibroblasts can secret collagens which accelerate wound reconstruction, that means the TriPE-NT plus light irradiation can promote the wound healing.

E. coli-infected wounds = assay: as above; assay type: in vivo, Wistar rats
From the text: as §1, §2, §3

[2] = test system: MDR E. coli-infected wounds; assay: as above; assay type: in vivo, Wistar rats
From the text: as §1, §2, §3

[3] = test system: S. epidermidis-infected wounds; assay: as above; assay type: in vivo, Wistar rats
From the text: as §1, §2, §3

MDR S. aureus = assay: Bacteria staining with TriPE-NT and PI, CLSM; assay type: cell-based; settings: 10 min
Procedure: (§4) FIG. 21B is a graph plotting stained percentages for E. coli, MDR E. coli, K. pneumoniae, MDR K. pneumoniae, S. epidermidis, MDR S. epidermidis, S. aureus, and MDR S. aureus.
(§5) FIG. 21C is a graph plotting percentage of dead bacteria stained by propidium iodine (PI) after the bacteria were incubated with 10 μM of TriPE-NT or PI for 10 min.
(§6) TriPE-NT: Ex=405 nm, Em=500-560 nm; PI: Ex=514, Em=600-700.
(§7) To indicate the status of the bacteria after TriPE-NT treatment, the bacteria was incubated with commercial dead bacteria-staining fluorescent reagent propidium iodide (PI) and TriPE-NT at the same time. Thanks to the AIE characteristics and water solubility of TriPE-NT, there was almost no background fluorescence in the imaging field. E. coli and S. epidermidis, which emitted bright orange (TriPE-NT) or red (PI) fluorescence, are clearly visualized under confocal laser scanning microscope (CLSM) (FIG. 21A-C, 22-23). […] In comparison, relatively low percentage of Gram-negative bacteria were stained by TriPE-NT (e.g., 88.1±9.8% E. coli, 84.3±12.7% MDR E. coli, 47.9±7.7% K. pneumoniae and 35.8±4.9% MDR K. pneumoniae) (FIG. 21B, FIG. 22). […] By contrast, relatively low percentages of E. coli (22.1±12.2% E. coli) were co-stained by both TriPE-NT and PI (FIGS. 21A, C), which is also similar to other Gram-negative bacteria (15.3±3.7%, MDR E. coli, 8.8±3.2%, K. pneumoniae and 6.4±2.6% MDR K. pneumoniae) (FIGS. 21A & C, 22). The reason for this difference possibly is ascribed to the extra membrane of Gram-negative bacteria which is absent in Gram-positive bacteria. These observations also illustrated that both Gram-negative bacteria and Gram-positive bacteria are vulnerable to TriPE-NT treatment, the possible reason is that these bacteria with negatively charged membranes, could anchor, uptake, and aggregate the positively charged probe, which restricts the intramolecular motion of the probe and causes their fluorescence emission.

MDR S. epidermidis = assay: Bacteria staining with TriPE-NT and PI, CLSM; assay type: cell-based; settings: 10 min
Procedure: as §4, §5, §6, §7

S. aureus = assay: Bacteria staining with TriPE-NT and PI, CLSM; assay type: cell-based; settings: 10 min
Procedure: as §4, §5, §6, §7

S. epidermidis = assay: Light-enhanced bacteria killing, plate counting method; assay type: cell-based; settings: 5 μM, light irradiation of 2 min
Procedure: (§8) FIGS. 15C-F are graphs depicting bacteria survival rates for bacteria that were incubated with TriPE-NT (10 μM) for 10 min, the bacteria suspensions (50 μL) were plated on agar plates and treated by white-light illumination (4 mW cm^−2) for 0, 2 and 30 min respectively. FIG. 15C is a graph plotting survival rate versus time of E. coli and MDR E. coli. FIG. 15D is a graph plotting survival rate versus time of K. pneumoniae and MDR K. pneumoniae. FIG. 15E is a graph plotting survival rate versus time of S. epidermidis and MDR S. epidermidis. FIG. 15F is a graph plotting survival rate versus time of S. aureus and MDR S. aureus.
(§9) FIGS. 16A-B are graphs depicting bacteria survival rates for bacteria that were incubated with TriPE-NT (0, 5, 10 μM) for 0 (S-0) and 10 (S-10) min, the bacteria suspensions (50 μL) were plated on agar plates and treated by white-light illumination (4 mW cm^−2) for 2 (I-2), 10 (I-10) and 30 (I-30) min respectively. FIG. 16A is a graph plotting the survival rate versus time of E. coli. FIG. 16B is a graph plotting the survival rate versus time of S. epidermidis.
(§10) The bacteria killing effect of TriPE-NT was evaluated on both wild and clinically isolated MDR bacteria by a traditional plate counting method. First, E. coli and S. epidermidis, as the representative of Gram-negative (G−) and Gram-positive (G+) bacteria, were used to determine the effective bactericidal concentration and illumination time. The bacteria were incubated with TriPE-NT (0, 5, 10 μM) for 0 and 10 min, the bacteria suspensions (50 μL) were plated on agar plates and treated by white-light illumination (4 mW cm^−2) for 2, 10 and 30 min respectively (FIGS. 16A-B). […] Thus, 10 μM TriPE-NT and light irradiation for 2 min or 30 min were set as experimental conditions in the following experiments.

E. coli = assay: as above; assay type: cell-based
Procedure: as §8, §9, §10

[4] = day 3 post-injury, TriPE-NT plus light vs control
[5] = day 3 post-injury, TriPE-NT plus light vs untreated
[6] = day 7 post-injury, TriPE-NT plus light (4 mW cm^−2, 30 min) vs control
[7] = day 7 post-injury, TriPE-NT plus light vs control

COc1ccc(C(=Cc2ccc(-c3ccc4c5c(cccc35)C(=O)N(CCCCn3c[n+](Cc5ccc(F)cc5F)cn3)C4=O)cc2)c2ccc(OC)cc2)cc1 [TriPE-NT] was tested, and the “wound size, MDR S. epidermidis-infected wounds” value [1, 4] was “no apparent difference”, the “HE staining of wound tissue, invaded lymphocytes, MDR S. epidermidis-infected wounds” value [1, 5] was “reduced the inflammatory reactions” and the “wound size, MDR S. epidermidis-infected wounds” value [1, 6] was “significantly smaller sizes”. The “HE staining of wound tissue, MDR S. epidermidis-infected wounds” value [1, 7] was “appearance of fibroblasts and newly formed squamous epithelial layers”, the “wound size, E. coli-infected wounds” value (E. coli-infected wounds; [4]) was “no apparent difference” and the “HE staining of wound tissue, invaded lymphocytes, E. coli-infected wounds” value (E. coli-infected wounds; [5]) was “reduced the inflammatory reactions”. For the same compound, the “wound size, E. coli-infected wounds” value (E. coli-infected wounds; [6]) was “more apparent reduction of wound size”, the “wound size, MDR E. coli-infected wounds” value [2, 4] was “no apparent difference” and the “HE staining of wound tissue, invaded lymphocytes, MDR E. coli-infected wounds” value [2, 5] was “reduced the inflammatory reactions”. The “wound size, MDR E. coli-infected wounds” value [2, 6] was “significantly smaller”, the “wound size, S. epidermidis-infected wounds” value [3, 4] was “no apparent difference” and the “HE staining of wound tissue, invaded lymphocytes, S. epidermidis-infected wounds” value [3, 5] was “reduced the inflammatory reactions”. The “wound size, S. epidermidis-infected wounds” value [3, 6] was “more apparent reduction of wound size”, the “HE staining of wound tissue, S. epidermidis-infected wounds” value [3, 7] was “appearance of fibroblasts and newly formed squamous epithelial layers; also recorded: appearance of hair follicles” and the “percentage of MDR S. aureus co-stained by TriPE-NT and PI (dead bacteria)” value (MDR S. aureus; 10 μM TriPE-NT and PI) was 57.4±1.3%. The “percentage of MDR S. aureus stained by TriPE-NT” value (MDR S. aureus; 10 μM) was 80.9±1.7%, the “percentage of MDR S. epidermidis co-stained by TriPE-NT and PI (dead bacteria)” value (MDR S. epidermidis; 10 μM TriPE-NT and PI) was 74.8±11.4% and the “percentage of MDR S. epidermidis stained by TriPE-NT” value (MDR S. epidermidis; 10 μM) was 92.9±6.6%. For the same compound, the “percentage of S. aureus co-stained by TriPE-NT and PI (dead bacteria)” value (S. aureus; 10 μM TriPE-NT and PI) was 67.3±12.2%, the “percentage of S. aureus stained by TriPE-NT” value (S. aureus; 10 μM) was 86.1±1.9% and the S. epidermidis killed (S. epidermidis) was “all S. epidermidis were killed”. The E. coli killed (E. coli; 10 μM, white light 4 mW cm^−2, 30 min) was “killed all and all” and the “survival rate of E. coli” value (E. coli; in darkness, 10 μM TriPE-NT) was “approximately 6.8±0.6%”.
